Measurements as given in US9561215B2, “BAX-activating cancer therapeutics” (The University of Louisville Research Foundation Inc., priority 2014, dated 2017).

Tests used:
[1] = tested on: Bak^−/−Bax^−/− MEF cells stably re-expressing Bax, Bak, or the empty vector; assay: Cell death by propidium iodide exclusion in MEF cells re-expressing Bax or Bak; format: cell-based; conditions: for rank by activity to induce Bax-dependent apoptosis: rank among the six Bax activator compounds
Method: (§1) Cell lines: Bak^−/−Bax^−/− murine embryonic fibroblast (MEF) cells expressing the empty vector, Bak or Bax were cultured as described previously. Human non-small cell lung carcinoma A549 and human pancreatic carcinoma Panc-1 were purchased from ATCC (Manassas, Va.). Untransformed and transformed MEF cells were kindly provided by Dr. Wei-Xing Zong. Bax^+/− and Bax^−/− HCT116 cells were obtained from Drs. Bert Vogelstein and Kenneth Kinzler. All cells were cultured at 37° C. in a 5% CO2 incubator as described previously (42). To generate A549 cells with reduced Bax expression or vector control, cells were first infected by Bax shRNA lentiviral particles or control shRNA lentiviral particles (Santa Cruz). Stable cells were obtained by culturing cells in the medium with 10 μg/ml puromycin.
(§2) Cell death analysis and Chou-Talalay synergism assay: Cell viability was measured by propidium iodide exclusion using flow cytometry (FACSCalibur, Becton Dickinson) as described previously. The synergistic effect between compound 106 and carboplatin or ABT-737 on cell viability was determined by Chou-Talalay median dose effect assay. IC50 of compound 106, carboplatin, and ABT-7373 on a tumor cell line was first determined. Different combinations of drugs at a fixed ratio higher or lower than their IC50 values were added to cells. After incubation for the indicated time, cell viability was examined and Fa was calculated as the ratio between the cell death levels of drug-treated cells and those of untreated control cells. Combination index (CI) was determined by the CompuSyn software (Biosoft, Cambridge, UK).
The inventors tested candidate agents by first determining whether cytotoxicity was dependent on Bax but not on Bak. Bax^−/−Bak^−/− murine embryonic fibroblast (MEF) cell lines stably re-expressing only Bax or Bak were established (FIG. 3).

[2] = tested on: A549 cells with Bax shRNA or control shRNA vector; assay: Cell death in A549 cells with reduced Bax expression or control shRNA; format: cell-based, human; conditions: 48 hour incubation
Method: as §1
as §2, with “The synergistic effect between compound 106 and carboplatin or ABT-737 on cell viability was determined by Chou-Talalay median dose effect assay.” left out, “Different combinations of drugs at a fixed ratio higher or lower than their IC50 values were added to cells.” left out, “UK). […]” for “UK).”

[3] = tested on: Bax^+/− and Bax^−/− HCT116 cells; assay: Cell death in HCT116 cells with or without Bax expression; format: cell-based, human; conditions: 48 hour incubation
Method: as §1
as §2, with “The synergistic effect between compound 106 and carboplatin or ABT-737 on cell viability was determined by Chou-Talalay median dose effect assay.” left out, “Different combinations of drugs at a fixed ratio higher or lower than their IC50 values were added to cells.” left out, “UK). […]” for “UK).”

Bax = Bax (Homo sapiens, UniProt Q07812); conditions: non-canonical BH3 interaction site; cited from earlier work
Sequence of Bax (Q07812 whole entry, species assumed): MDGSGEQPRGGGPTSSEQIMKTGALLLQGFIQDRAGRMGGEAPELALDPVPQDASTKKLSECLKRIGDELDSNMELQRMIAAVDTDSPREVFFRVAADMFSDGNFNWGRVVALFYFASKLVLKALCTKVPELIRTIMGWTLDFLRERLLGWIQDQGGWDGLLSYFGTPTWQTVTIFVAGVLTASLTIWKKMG

A549 cells = assay: Chou-Talalay synergism assay in A549 cells; format: cell-based, human; conditions: compound 106 (80-240 μM) with carboplatin (80-240 μM), constant ratio, 48 hours
Method: as §2, with “The synergistic effect between compound 106 and carboplatin or ABT-737 on cell viability was determined by Chou-Talalay median dose effect assay.” left out, “Different combinations of drugs at a fixed ratio higher or lower than their IC50 values were added to cells.” left out
(§3) To explore the potential of compound 106 functioning in combination chemotherapy, the inventors investigated whether compound 106 sensitizes tumor cells to die following simultaneous treatment with a chemotherapeutic drug. Carboplatin is currently used to treat non-small-cell lung cancer and human pancreatic cancer. To investigate whether the cytotoxic effects of compound 106 and carboplatin on human tumor cells were synergistic, the inventors carried out median-effect analysis using the Chou-Talalay method. After 48 hours of treatment, the cell death levels of A549 and PANC-1 cells treated with various concentrations of compound 106 and carboplatin at a constant dose ratio were measured, and the combination index (CI) values were determined.

PANC-1 cells = assay: Chou-Talalay synergism assay in PANC-1 cells; format: cell-based, human; conditions: compound 106 (3.3-240 μM) with carboplatin (3.3-240 μM), constant ratio, 48 hours
Method: as §2, with “The synergistic effect between compound 106 and carboplatin or ABT-737 on cell viability was determined by Chou-Talalay median dose effect assay.” left out, “Different combinations of drugs at a fixed ratio higher or lower than their IC50 values were added to cells.” left out
as §3

[4] = tested on: anti-apoptotic Bcl-2 proteins, including Bcl-2, Bcl-xL, and Bcl-w; conditions: cited from earlier work

With COc1ccccc1N1CCN(Cn2nc(-c3ccc(F)cc3)n(CC3CCCO3)c2=S)CC1 (stereo not drawn) [ZINC16076241, 5-(4-fluorophenyl)-2-[[4-(2-methoxyphenyl)piperazin-1-yl]methyl]-4-(oxolan-2-ylmethyl)-1,2,4-triazole-3-thione] the “rank by activity to induce Bax-dependent apoptosis” value (shortened to “rank by activity”) [1] was 5.

For CC[C@]1(O)C[C@H]2CN(CCc3c([nH]c4ccccc34)[C@@](C(=O)OC)(c3cc4c(cc3OC)N(C=O)[C@H]3[C@@](O)(C(=O)OC)[C@H](OC(C)=O)[C@]5(CC)C=CCN6CC[C@]43[C@@H]65)C2)C1 [vincristine], the “cell death, reduced Bax expression versus control shRNA” value [2] was “Decrease in Bax expression did not affect killing activities” and the “cell death, Bax expressing versus Bax lacking HCT116 cells” value [3] was “Lack of Bax expression in HCT116 cells did not affect killing activities”.

In the case of N.N.O=C([O-])C1(C(=O)[O-])CCC1.[Pt+2] [carboplatin, cis-Diammine (1,1-cyclobutanedicarboxylato)platinum(II)], the “cell death, reduced Bax expression versus control shRNA” value [2] is reported as “Decrease in Bax expression did not affect killing activities” and the “cell death, Bax expressing versus Bax lacking HCT116 cells” value [3] is reported as “Lack of Bax expression in HCT116 cells did not affect killing activities”.

In the case of BAM7, the “Bax binding and activation” value (Bax) is listed as “directly binds Bax and activates Bax by triggering Bax oligomerization”.

In the case of COc1ccccc1-c1nc2cc(N)cc(C(=O)NC3CCCN(Cc4ccccc4)C3)c2n1C (stereo not drawn) [ZINC 12150973, 5-amino-N-(1-benzyl-3-piperidinyl)-2-(2-methoxyphenyl)-1-methyl-1H-benzimidazole-7-carboxamide], the “rank by activity” value [1] is reported as 4.

With COc1cccc(Cn2nc(C(=O)N3CCCC(O)C3)c3c2CCN(Cc2ccc(C)c(C)c2)C3)c1 (stereo not drawn) [compound 106, 1-{[5-(3,4-dimethylbenzyl)-1-(3-methoxybenzyl)-4,5,6,7-tetrahydro-1H-pyrazolo[4,3-c]pyridin-3-yl]carbonyl}-3-piperidinol] the “combination index (CI)” value (A549 cells) was “smaller than 1”, the “combination index (CI)” value (PANC-1 cells) was “smaller than 1” and the “cytotoxicity dependent on Bax but not on Bak (test of the 46 candidate agents)” value ([1]; MEF cell lines re-expressing only Bax or Bak, and Bax−/−Bak−/− MEFs) was “exhibited the highest Bax- and dose-dependent cytotoxicity”. For the same molecule, the “rank by activity” value [1] was 1.

With CSc1ccc(C2N=C3NCN(Cc4cccnc4)CN3c3nc4ccccc4n32)cc1 (stereo not drawn) [ZINC 13638227, 6-(4-(methylthio)phenyl)-2-(pyridin-3-ylmethyl)-2,3,4,6-tetrahydro-1H-benzo[4,5]imidazo[1,2-a][1,3,5]triazino[1,2-c][1,3,5]triazine] the “rank by activity” value [1] was 3.

For CCn1nc(C)c(CN2CCCC(N3CCN(c4ccc(OC)cc4)CC3)C2)c1C (stereo not drawn) [ZINC20110124, 1-{1-[(1-ethyl-3,5-dimethyl-1H-pyrazol-4-yl)methyl]-3-piperidinyl}-4-(4-methoxyphenyl)piperazine], the “rank by activity” value [1] was 2.

With CC(C)CN1CC(OCc2cccnc2)CN(C(=O)Cc2ccc3c(c2)OCO3)CC1=O (stereo not drawn) [ZINC14531256, 4-(1,3-benzodioxol-5-ylacetyl)-1-isobutyl-6-(3-pyridinylmethoxy)-1,4-diazepan-2-one] the “rank by activity” value [1] was 6.

In the case of CN(C)CC[C@H](CSc1ccccc1)Nc1ccc(S(=O)(=O)NC(=O)c2ccc(N3CCN(Cc4ccccc4-c4ccc(Cl)cc4)CC3)cc2)cc1[N+](=O)[O-] [ABT-737], the binding affinity [4] is listed as “bind with high affinity”.
